The values below come from publication PMC7099768, “A positron emission tomography imaging study to confirm target engagement in the lungs of patients with idiopathic pulmonary fibrosis following a single dose of a novel inhaled αvβ6 integrin inhibitor” (Respiratory Research, 2020).

The conditions of data set [1]: single doses up to 3000 mcg; cited from earlier work.

For the compound `Cc1cc(C)n(-c2cccc([C@H](CC(=O)O)CN3CC[C@@H](CCc4ccc5c(n4)NCCC5)C3)c2)n1` [GSK3008348, (S)-3-(3-(3,5-Dimethyl-1 H-pyrazol-1-yl)phenyl)-4-((R)-3-(2-(5,6,7,8-tetrahydro-1,8-naphthyridin-2-yl)ethyl)pyrrolidin-1-yl) butanoic acid], under “1000 mcg nebulised, N=5”, the “Diarrhoea, n (%)” value is listed as 0 n (%); the “Headache, n (%)” value is given as 1 (20) n (%); the “Number of participants with any AE, n (%)” value is 3 (60) n (%); the “Urinary tract infection, n (%)” value is 1 (20) n (%). Under “single nebulised 1000 mcg doses”, the “Intensity and treatment relation of AEs” value is “All AEs were mild in intensity and none were considered treatment related”. In data set [1], the “Tolerability in healthy participants” value is reported as “well tolerated”.
